Consider 19 molecules from patent US20240376085A1 (Janssen Pharmaceutica NV, priority 2021, published 2024).

Test [1] relates to IL-17A-induced G-CSF production in human normal keratinocyte (NHK). Kind of test: NHK assay: IL-17A-induced G-CSF production in normal human keratinocytes. To be noted: 24 h, IL-17A 5 ng/mL, average if tested more than once. The class given is cell-based. The method, boiled down:
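IC50 derives from G-CSF in supernatants, quantified by HTRF from a standard curve, with CellTiter-Glo viability compared to DMSO control. Before a 24 h, 37°C culture of normal human keratinocytes at 3000–4000 cells/well, compound dilutions were preincubated 1 h at rt with human IL-17A (5 ng/mL final), with 0.2% DMSO and 5% FBS.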

In the next test the target is T1, IL-17A : IL-17RA binding (Homo sapiens, UniProt Q16552, K93Q).
T1 construct: Name: IL-17A-Flag
The test can be described thus: IL-17A(FLAG-tagged):IL-17RA(His-tagged) binding disruption Eu-HTRF assay, Protocol 1. The conditions noted are these: FLAG-IL-17A 2.5 nM at 2x final concentration; average if tested more than once. An outline of the steps: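 IC50 came from a one-site competition fit of the acceptor/donor (665/620 nm) HTRF ratio. His-tagged IL-17RA, Eu-anti-FLAG and D2-anti-His were added after a 1 h rt compound preincubation with FLAG-tagged IL-17A dimer in PBS/0.01% Triton X-100, followed by 2 h at rt before reading.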
On the technique in general: Time-resolved FRET reads energy transfer from a long-lived donor to a nearby acceptor.

Structures are written as SMILES.

T1 sequence (Q16552 with tags, fused parts or gaps K93Q): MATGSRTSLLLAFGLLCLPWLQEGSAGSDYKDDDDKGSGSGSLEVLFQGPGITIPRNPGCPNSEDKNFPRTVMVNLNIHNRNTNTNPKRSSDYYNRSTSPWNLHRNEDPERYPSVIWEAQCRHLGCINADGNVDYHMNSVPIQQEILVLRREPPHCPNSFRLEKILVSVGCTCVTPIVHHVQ

Regarding `C[C@@H](NC(=O)CCC(F)(F)F)c1ccc2nc([C@@H](NC(=O)c3ccccc3)C3CCC(F)(F)CC3)[nH]c2c1` [Example 120, N—((S)-(4,4-Difluorocyclohexyl)(6-((R)-1-(4,4,4-trifluorobutanamido)ethyl)-1H-benzo[d]imidazol-2-yl)methyl)benzamide], the IC50 (commonly the concentration that gives 50% inhibition) in test [1] (Homo sapiens, Keratinocyte) is 50 to 100 nM; at IL-17A : IL-17RA binding, over 100 nM.

With `C[C@@H](NC(=O)CCC(F)(F)F)c1ccc2[nH]c([C@@H](NC(=O)c3cnnn3CC(F)F)C3CCC(F)(F)CC3)nc2c1` [Example 38, N—[(S)-(4,4-Difluorocyclohexyl)-[6-[(1R)-1-(4,4,4-trifluorobutanoylamino)ethyl]-1H-benzimidazol-2-yl]methyl]-3-(2,2-difluoroethyl)triazole-4-carboxamide], the IC50 in test [1] (Homo sapiens, Keratinocyte) was over 100 nM; on IL-17A : IL-17RA binding, over 100 nM.

For the molecule `CC(Cn1ncc(C(=O)N[C@H](c2nc3ccc([C@@H](C)NC(=O)CCC(F)(F)F)cc3[nH]2)C2CCC(F)(F)CC2)n1)C(F)(F)F` (single isomer, unassigned) [Example 69, N—((S)-(4,4-Difluorocyclohexyl)(6-((R)-1-(4,4,4-trifluorobutanamido)ethyl)-1H-benzo[d]imidazol-2-yl)methyl)-2-((R*)-3,3,3-trifluoro-2-methylpropyl)-2H-1,2,3-triazole-4-carboxamide], the IC50 in test [1] (Homo sapiens, Keratinocyte) was over 100 nM; at IL-17A : IL-17RA binding, over 100 nM.

For the molecule `C[C@@H](NC(=O)CCC(F)(F)F)c1ccc2[nH]c([C@@H](NC(=O)C3(C(F)(F)F)CC3)C3CCC(F)(F)CC3)nc2c1` [Example 97, N—((S)-(4,4-Difluorocyclohexyl)(5-((R)-1-(4,4,4-trifluorobutanamido)ethyl)-1H-benzo[d]imidazol-2-yl)methyl)-1-(trifluoromethyl)cyclopropane-1-carboxamide], the IC50 in test [1] (Homo sapiens, Keratinocyte) was over 100 nM; at IL-17A : IL-17RA binding, over 100 nM.

Turning to `C[C@@H](NC(=O)CC1CC(F)(F)C1)c1ccc2[nH]c([C@@H](NC(=O)c3ccnn3C)C3CCC(F)(F)CC3)nc2c1` [Example 119, N—((S)-(5-((R)-1-(2-(3,3-Difluorocyclobutyl)acetamido)ethyl)-1H-benzo[d]imidazol-2-yl)(4,4-difluorocyclohexyl)methyl)-1-methyl-1H-pyrazole-5-carboxamide], the IC50 is under 50 nM in test [1] (Homo sapiens, Keratinocyte) and over 100 nM on IL-17A : IL-17RA binding.

Turning to `C[C@@H](NC(=O)CCC(F)(F)F)c1ccc2[nH]c([C@@H](NC(=O)c3ccc(CCC(F)(F)F)s3)C3CCC(F)(F)CC3)nc2c1` [Example 221, N—((S)-(4,4-Difluorocyclohexyl)(5-((R)-1-(4,4,4-trifluorobutanamido)ethyl)-1H-benzo[d]imidazol-2-yl)methyl)-5-(3,3,3-trifluoropropyl)thiophene-2-carboxamide], the 50% inhibitory concentration (IC50) was over 100 nM in test [1] (Homo sapiens, Keratinocyte) and over 100 nM on IL-17A : IL-17RA binding.

Turning to `Cc1nonc1C(=O)N[C@H](c1nc2ccc([C@H](NC(=O)CC3CC(F)(F)C3)C3CC3)cc2[nH]1)[C@@H]1CCCCO1` (relative stereo) [Example 248, N—((R*)-(6-((R)-Cyclopropyl(2-(3,3-difluorocyclobutyl)acetamido)methyl)-1H-benzo[d]imidazol-2-yl)((S*)-tetrahydro-2H-pyran-2-yl)methyl)-4-methyl-1,2,5-oxadiazole-3-carboxamide], the IC50 in test [1] (Homo sapiens, Keratinocyte) was over 100 nM; at IL-17A : IL-17RA binding, 50 to 100 nM.

For the molecule `Cn1nccc1C(=O)N[C@H](c1nc2cc(C(NC(=O)CCC(F)(F)F)C3CC3)ccc2[nH]1)C1CCC(F)(F)CC1` (single isomer, unassigned) [Example 54, N—((S)-(5-((S*)-Cyclopropyl(4,4,4-trifluorobutanamido)methyl)-1H-benzo[d]imidazol-2-yl)(4,4-difluorocyclohexyl)methyl)-1-methyl-1H-pyrazole-5-carboxamide], the IC50 was under 50 nM in test [1] (Homo sapiens, Keratinocyte) and over 100 nM on IL-17A : IL-17RA binding.

For the molecule `CC(C)n1nccc1C(=O)N[C@H](c1nc2ccc([C@H](NC(=O)CC3CC(F)(F)C3)C3CC3)cc2[nH]1)[C@@H]1C[C@@H]2[C@H](C1)C2(F)F` [Example 238, N—((S)-(6-((R)-Cyclopropyl(2-(3,3-difluorocyclobutyl)acetamido)methyl)-1H-benzo[d]imidazol-2-yl)((1R,3s,5S)-6,6-difluorobicyclo[3.1.0]hexan-3-yl)methyl)-1-isopropyl-1H-pyrazole-5-carboxamide], the IC50 in test [1] (Homo sapiens, Keratinocyte) was under 50 nM; on IL-17A : IL-17RA binding, under 50 nM.

Regarding `COCC(NC(=O)CC1CC(F)(F)C1)c1ccc2[nH]c([C@H](COC(C)(C)C(F)(F)F)NC(=O)c3nonc3C3CC3)nc2c1` (single isomer, unassigned) [Example 165, 4-Cyclopropyl-N—((R)-1-(5-((S*)-1-(2-(3,3-difluorocyclobutyl)acetamido)-2-methoxyethyl)-1H-benzo[d]imidazol-2-yl)-2-((1,1,1-trifluoro-2-methylpropan-2-yl)oxy)ethyl)-1,2,5-oxadiazole-3-carboxamide], the IC50 is over 100 nM in test [1] (Homo sapiens, Keratinocyte) and over 100 nM at IL-17A : IL-17RA binding.

Consider `CC(C)n1ncc(F)c1C(=O)NC(CC(C)(C)C(F)(F)F)c1nc2cc([C@@H](C)NC(=O)CCC(F)(F)F)ccc2[nH]1` (single isomer, unassigned) [Example 194, 4-Fluoro-1-isopropyl-N—((S*)-4,4,4-trifluoro-3,3-dimethyl-1-(5-((R)-1-(4,4,4-trifluorobutanamido)ethyl)-1H-benzo[d]imidazol-2-yl)butyl)-1H-pyrazole-5-carboxamide], for which the IC50 in test [1] (Homo sapiens, Keratinocyte) was over 100 nM; on IL-17A : IL-17RA binding, over 100 nM.

As to `Cc1nocc1C(=O)N[C@@H](COC(C)(C)C(F)(F)F)c1nc2ccc([C@H](NC(=O)CC3CC(F)(F)C3)C3CC3)cc2[nH]1` [Example 77, N—((R)-1-(6-((R)-Cyclopropyl(2-(3,3-difluorocyclobutyl)acetamido)methyl)-1H-benzo[d]imidazol-2-yl)-2-((1,1,1-trifluoro-2-methylpropan-2-yl)oxy)ethyl)-3-methylisoxazole-4-carboxamide], the IC50 in test [1] (Homo sapiens, Keratinocyte) lay within 50 to 100 nM; on IL-17A : IL-17RA binding it was 50 to 100 nM.

As to `CC(C)C(NC(=O)CCC(F)(F)F)c1ccc2[nH]c([C@@H](NC(=O)c3ccnn3C)C3CCC(F)(F)CC3)nc2c1` (single isomer, unassigned) [Example 45, N—((S)-(4,4-Difluorocyclohexyl)(5-((R*)-2-methyl-1-(4,4,4-trifluorobutanamido)propyl)-1H-benzo[d]imidazol-2-yl)methyl)-1-methyl-1H-pyrazole-5-carboxamide], the results for the IC50 (in test [1]; at IL-17A : IL-17RA binding) were 50 to 100 nM and over 100 nM, respectively.

Take `CC(C)c1snnc1C(=O)N[C@H](c1nc2cc([C@@H](C)NC(=O)CCC(F)(F)F)ccc2[nH]1)C1CCC(F)(F)CC1` [Example 206, N—((S)-(4,4-Difluorocyclohexyl)(5-((R)-1-(4,4,4-trifluorobutanamido)ethyl)-1H-benzo[d]imidazol-2-yl)methyl)-5-isopropyl-1,2,3-thiadiazole-4-carboxamide]: the IC50 is under 50 nM in test [1] (Homo sapiens, Keratinocyte) and 50 to 100 nM at IL-17A : IL-17RA binding.

Regarding `CC(C)(OC[C@H](NC(=O)c1nonc1C1CC1)c1nc2cc([C@H](NC(=O)CC34CC(F)(C3)C4)C3CC3)ccc2[nH]1)C(F)(F)F` [Example 166, 4-Cyclopropyl-N—((R)-1-(5-((R)-cyclopropyl(2-(3-fluorobicyclo[1.1.1]pentan-1-yl)acetamido)methyl)-1H-benzo[d]imidazol-2-yl)-2-((1,1,1-trifluoro-2-methylpropan-2-yl)oxy)ethyl)-1,2,5-oxadiazole-3-carboxamide], the IC50 in test [1] (Homo sapiens, Keratinocyte) was under 50 nM; at IL-17A : IL-17RA binding, under 50 nM.

As to `CC(C)(OC[C@H](NC(=O)c1nonc1C1CC1)c1nc2ccc([C@H](NC(=O)CC3CC(F)(F)C3)C3CC3)cc2[nH]1)C(F)(F)F` [Example 159, 4-Cyclopropyl-N—((R)-1-(6-((R)-cyclopropyl(2-(3,3-difluorocyclobutyl)acetamido)methyl)-1H-benzo[d]imidazol-2-yl)-2-((1,1,1-trifluoro-2-methylpropan-2-yl)oxy)ethyl)-1,2,5-oxadiazole-3-carboxamide], the IC50 was under 50 nM in test [1] (Homo sapiens, Keratinocyte) and under 50 nM on IL-17A : IL-17RA binding.

Regarding `C[C@@H](NC(=O)CCC(F)(F)F)c1ccc2[nH]c([C@@H](NC(=O)C34CC(C3)C4)C3CCC(F)(F)CC3)nc2c1` [Example 112, N—((S)-(4,4-Difluorocyclohexyl)(5-((R)-1-(4,4,4-trifluorobutanamido)ethyl)-1H-benzo[d]imidazol-2-yl)methyl)bicyclo[1.1.1]pentane-1-carboxamide], the IC50 in test [1] (Homo sapiens, Keratinocyte) is over 100 nM; on IL-17A : IL-17RA binding, over 100 nM.

As to `Cc1nonc1C(=O)N[C@@H](CC(C)(C)C(F)(F)F)c1nc2ccc([C@H](NC(=O)CC3CC(F)(F)C3)C3CC3)cc2[nH]1` [Example 186, N—((S)-1-(6-((R)-Cyclopropyl(2-(3,3-difluorocyclobutyl)acetamido)methyl)-1H-benzo[d]imidazol-2-yl)-4,4,4-trifluoro-3,3-dimethylbutyl)-4-methyl-1,2,5-oxadiazole-3-carboxamide], the IC50 in test [1] (Homo sapiens, Keratinocyte) was 50 to 100 nM; on IL-17A : IL-17RA binding, under 50 nM.

On to `CC(C)n1nccc1C(=O)N[C@@H](CC1(C(F)(F)F)CC1)c1nc2ccc([C@H](NC(=O)CC3CC(F)(F)C3)C3CC3)cc2[nH]1` [Example 243, N—((S)-1-(6-((R)-Cyclopropyl(2-(3,3-difluorocyclobutyl)acetamido)methyl)-1H-benzo[d]imidazol-2-yl)-2-(1-(trifluoromethyl)cyclopropyl)ethyl)-1-isopropyl-1H-pyrazole-5-carboxamide], for which the IC50 in test [1] (Homo sapiens, Keratinocyte) is 50 to 100 nM; at IL-17A : IL-17RA binding, over 100 nM.
